We go through 19 molecules from US20100216981A1 (Nippon Soda Co., Ltd., priority 2007, published 2010).

Series [1] has as its target PTGS-SP p19 of TBSV (Tomato bushy stunt virus, UniProt P11690). The experiment in a line: Surface plasmon resonance (Biacore) inhibition of siRNA binding to p19. To be noted: read-out: Binding inhibition rate (%) Biacore p19 25 ppm.
Series [2] has as its target synthetic peptide of tat (HIV tat) (Human immunodeficiency virus type 1 group M subtype B, UniProt P04610, P77S). The experiment in a line: Gel shift assay, inhibition of siRNA binding to synthetic peptide of tat. Particulars: compound 100 ppm; synthetic peptide of tat 500 nM. Background: A gel shift assay detects complexes by their altered migration in electrophoresis.

For series [3], the target named is TAV-2b (Tomato aspermy virus, UniProt Q8UYT3). The experiment in a line: Surface plasmon resonance (Biacore) inhibition of siRNA binding to TAV-2b. To be noted: read-out: Binding inhibition rate (%) Biacore TAV2b 25 ppm.
Series [4] addresses T1, 2b (PTGS suppressor) (Tomato aspermy virus, UniProt Q8UYT3 Q8UYT3:1-95).
T1 sequence: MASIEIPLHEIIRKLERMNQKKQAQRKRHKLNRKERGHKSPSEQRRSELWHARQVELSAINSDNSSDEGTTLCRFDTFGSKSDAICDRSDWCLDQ
The experiment in a line: SPR; siRNA on SA chip; 10 mM HEPES pH 7.4, 150 mM NaCl, 3 mM EDTA; 2b about 10 ug/ml; free siRNA 0.1 uM competes (positive control); small molecules inhibit binding. To be noted: tags: FLAG (MBP removed with Factor Xa); label: 3'-biotin on sense strand; siRNA duplex of two 21-mers.

Series [5] addresses T2, tat synthetic peptide (arginine-rich portion) (Human immunodeficiency virus, UniProt P69698 SEQ:1-34).
T2 chain: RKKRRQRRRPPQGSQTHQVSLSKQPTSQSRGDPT
The experiment in a line: EMSA; peptide 500 nM, siRNA 500 uM as printed, 0.005% BSA, 25 C; binding inhibited by small molecules. To be noted: protein: synthetic; tags: chemically synthesised peptide, Biologica Co., 98% purity; label: 3'-biotin on sense strand; siRNA duplex of two 21-mers.

The target in series [6] is T3, p19 (PTGS suppressor) (Tomato bushy stunt virus, UniProt P11690 P11690:1-172).
T3 sequence: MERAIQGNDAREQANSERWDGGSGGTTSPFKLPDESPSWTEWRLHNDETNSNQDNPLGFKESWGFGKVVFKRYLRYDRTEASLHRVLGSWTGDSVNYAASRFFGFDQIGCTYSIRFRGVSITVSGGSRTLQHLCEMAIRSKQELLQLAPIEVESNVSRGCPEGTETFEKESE
The experiment in a line: SPR; siRNA on SA chip; 10 mM HEPES pH 7.4, 150 mM NaCl, 3 mM EDTA; p19 about 10 ug/ml; free siRNA 0.1 uM competes (positive control); small molecules inhibit binding. To be noted: tags: His-tag (pCold I), FLAG; chain copies: 2; label: 3'-biotin on sense strand; siRNA duplex of two 21-mers. On the technique in general: In SPR one partner is held on a chip, and binding of the other changes the refractive index at the surface.

One may read the inhibition as the drop in the measured response relative to a control, in per cent.

Take `COc1c(OC)c(=O)c1=O` [Compound 1]: the inhibition at 25 ppm in series [1] and in series [3] was 80% each time. Moreover, the “Binding inhibition rate (%) Gel shift tat 100 ppm” value in series [2] is recorded as 10%.
Turning to `CC1(C)C(=O)C(C)(C)C1=O` [Compound 2], the inhibition at 25 ppm was found to be 75% in series [1] and 0% in series [3].
Regarding `CCOC(=O)C1CCCC1=O` (centres unmarked) [Compound 3], the inhibition at 25 ppm amounted to 0% in series [1] and 90% in series [3].
With `CC(=O)C1CCCC1=O` (centres unmarked) [Compound 4], the inhibition at 25 ppm turned out to be 20% in series [1] and 90% in series [3].
With `O=C1C=CC(=O)C1` [Compound 5], the inhibition at 25 ppm in series [1] and in series [3] was 100% in each case. Also, the “Binding inhibition rate (%) Gel shift tat 100 ppm” value in series [2] turned out to be 100%.
As for `O=C1CCc2ccccc2C1=O` [Compound 6], the inhibition at 25 ppm in series [1] and in series [3] was 100% each time. Also, the “Binding inhibition rate (%) Gel shift tat 100 ppm” value in series [2] came to 100%.
As to `O=C1CCSC1` [Compound 9], the inhibition at 25 ppm was 95% in series [1] and 0% in series [3]. Also, in series [2], the “Binding inhibition rate (%) Gel shift tat 100 ppm” value amounted to 0%.
Turning to `O=C1CCCCC1` [Compound 10], the inhibition at 25 ppm in series [1] stood at 70%; in series [3], 50%.
For `O=C1CCC(=O)CC1` [Compound 11], in that order: 70% and 20%.
Consider `O=C1C=CC(=O)C=C1` [Compound 12], for which the inhibition at 25 ppm was 100% in series [1] and 95% in series [3]. Moreover, the “Binding inhibition rate (%) Gel shift tat 100 ppm” value in series [2] was determined as 100%.
Take `O=C1C=C(Cl)C(=O)C(Cl)=C1` [Compound 13]: the “Binding inhibition rate (%) Gel shift tat 100 ppm” value in series [2] came out at 100%.
Still for that read-out and setting: next, `O=C1C=C(Cl)C(=O)C=C1Cl` [Compound 14]: 100%.
Consider `O=C1C=C(O)C(=O)C=C1O` [Compound 15], for which the inhibition at 25 ppm in series [1] stood at 95%; in series [3], 100%. In series [2], the “Binding inhibition rate (%) Gel shift tat 100 ppm” value is listed as 80%.
The like results for `COC1=C(OC)C(=O)C(C)=CC1=O` [Compound 16] were, in that order, 80%, 0% and 0%.
As for `O=c1c(O)c(O)c(=O)c(=O)c1=O` [Compound 17], the values for the inhibition at 25 ppm in series [1] and in series [3] were 100% and 90%, respectively.
For the molecule `NC1=CC(=O)CCC1` [Compound 18], the inhibition at 25 ppm in series [1] is 90%; in series [3], 80%. For the same molecule, the “Binding inhibition rate (%) Gel shift tat 100 ppm” value in series [2] is on record as 0%.
For the molecule `Cc1occc(=O)c1O` [Compound 19], the figures for the inhibition at 25 ppm in series [1] and in series [3] were 90% and 50%, respectively. The “Binding inhibition rate (%) Gel shift tat 100 ppm” value in series [2] was 0%.
Regarding `O=C1C=CC(=O)c2c(O)ccc(O)c21` [Compound 20], the inhibition at 25 ppm in series [1] was found to be 100%; in series [3], 80%. Further, the “Binding inhibition rate (%) Gel shift tat 100 ppm” value in series [2] turned out to be 100%.

B1: biotinylated siRNA 21 bp (dsRNA)
RNA 1: UUGCUCAACAGUAUGGGCAUU
RNA 2: UGCCCAUACUGUUGAGCAAUU
For the molecule B1, the binding result in series [4], in series [5] and in series [6] was “binds” in each case.
